Test system: E. coli ΔsseA (3MST-deficient) strain
Type: cell-based
Settings: Table 1; relative values of growth inhibition (negative numbers), ΔsseA vs wt E. coli

With `CC1(C)S[C@@H]2[C@H](NC(=O)C(C(=O)O)c3ccccc3)C(=O)N2[C@H]1C(=O)O` (stereo partly shown) [Carbenicillin] the “ΔsseA inhibition of growth” value was −164.

In the case of `O=[N+]([O-])c1ccc(Cl)c([N+](=O)[O-])c1` [1-Chloro-2,4-dinitrobenzene], the “ΔsseA inhibition of growth” value is reported as −221.

In the case of `CCCCCCCC(=O)[O-].[Na+]` [Sodium caprylate], the “ΔsseA inhibition of growth” value is reported as −346.

With `OC(CCN1CCCCC1)(c1ccccc1)c1ccccc1` [Pridinol] the “ΔsseA inhibition of growth” value was −206.

`CCn1cc(C(=O)O)c(=O)c2cc(F)c(N3CCNCC3)cc21` [Norfloxacin] was tested, and the “ΔsseA inhibition of growth” value was −212.

For `Nc1ccn([C@@H]2O[C@H](CO)[C@@H](O)[C@@H]2O)c(=O)n1` [Cytosine arabinoside], the “ΔsseA inhibition of growth” value was −281.

In the case of `CN(C)CCCN1c2ccccc2Sc2ccc(Cl)cc21` [Chlorpromazine], the “ΔsseA inhibition of growth” value is reported as −251.

With `CC(Oc1ccccc1)C(=O)N[C@@H]1C(=O)N2[C@@H]1SC(C)(C)[C@@H]2C(=O)O` (stereo partly shown) [Phenethicillin] the “ΔsseA inhibition of growth” value was −216.

With `NO` [Hydroxylamine] the “ΔsseA inhibition of growth” value was −150.

With `CC(C)c1nc2nc(N)nc(N)c2nc1C(C)C` [2,4-Diamino-6,7-diisopropylpteridine] the “ΔsseA inhibition of growth” value was −429.

With `CC[C@H]1OC(=O)[C@H](C)[C@@H](O[C@H]2C[C@@](C)(OC)[C@@H](O)[C@H](C)O2)[C@H](C)[C@@H](O[C@@H]2O[C@H](C)C[C@H](N(C)C)[C@H]2O)[C@](C)(O)C[C@@H](C)C(=O)[C@H](C)[C@@H](O)[C@]1(C)O` [Erythromycin] the “ΔsseA inhibition of growth” value was −468.

With `O=[N+]([O-])c1ccc(O)c([N+](=O)[O-])c1` [2,4-Dinitrophenol] the “ΔsseA inhibition of growth” value was −296.

For `CO[C@H]1C[C@H](O[C@H]2[C@H](C)[C@@H](O[C@@H]3O[C@H](C)C[C@H](N(C)C)[C@H]3O)[C@@H](C)C[C@@]3(CO3)C(=O)[C@H](C)[C@@H](O)[C@@H](C)[C@@H](C)OC(=O)[C@@H]2C)O[C@@H](C)[C@@H]1O` [Oleandomycin], the “ΔsseA inhibition of growth” value was −498.

For `CO[C@H]1/C=C/O[C@@]2(C)Oc3c(C)c([O-])c4c(O)c(cc(O)c4c3C2=O)NC(=O)/C(C)=C\C=C\[C@H](C)[C@H](O)[C@@H](C)[C@@H](O)[C@@H](C)[C@H](OC(C)=O)[C@@H]1C.[Na+]` [Rifamycin SV], the “ΔsseA inhibition of growth” value was −352.

`Cc1onc(-c2ccccc2)c1C(=O)N[C@@H]1C(=O)N2[C@@H]1SC(C)(C)[C@@H]2C(=O)O` [Oxacillin] was tested, and the “ΔsseA inhibition of growth” value was −346.

In the case of `Nc1c2ccccc2nc2ccccc12` [9-Aminoacridine], the “ΔsseA inhibition of growth” value is reported as −142.

In the case of `O=C1OC(CN2CCOCC2)CN1/N=C/c1ccc([N+](=O)[O-])o1` (stereo not shown) [Furaltadone], the “ΔsseA inhibition of growth” value is reported as −162.

With `[H]/N=C(/N)N[C@H]1[C@H](O)[C@@H](O)[C@H](O[C@@H]2O[C@@H](C)[C@](O)(C=O)[C@H]2O[C@@H]2O[C@@H](CO)[C@H](O)[C@@H](O)[C@@H]2NC)[C@@H](N/C(N)=N\[H])[C@@H]1O` [Streptomycin] the “ΔsseA inhibition of growth” value was −421.

With `CO[C@@H]1[C@@H](OC(N)=O)[C@@H](O)[C@H](Oc2ccc3c(O)c(NC(=O)c4ccc(O)c(CC=C(C)C)c4)c(=O)oc3c2C)OC1(C)C` [Novobiocin] the “ΔsseA inhibition of growth” value was −265.

For `CO[C@H]1C[C@H](O[C@H]2[C@H](C)[C@@H](O[C@@H]3O[C@H](C)C[C@H](N(C)C)[C@H]3OC(C)=O)[C@@H](C)C[C@@]3(CO3)C(=O)[C@H](C)[C@@H](OC(C)=O)[C@@H](C)[C@@H](C)OC(=O)[C@@H]2C)O[C@@H](C)[C@@H]1OC(C)=O` [Troleandomycin], the “ΔsseA inhibition of growth” value was −203.

For `N#CO` [Sodium cyanate], the “ΔsseA inhibition of growth” value was −238.

With `CC(=O)OCC1=C(C(=O)O)N2C(=O)[C@@H](NC(=O)Cc3cccs3)[C@H]2SC1` [Cephalothin] the “ΔsseA inhibition of growth” value was −160.

With `CN(C)c1ccc(C(=C2C=CC(=[N+](C)C)C=C2)c2ccc(N(C)C)cc2)cc1` [Crystal Violet] the “ΔsseA inhibition of growth” value was −576.

For `O=C(O)CCCc1ccc(N(CCCl)CCCl)cc1` [Chlorambucil], the “ΔsseA inhibition of growth” value was −177.

With `O=C1C2CC=CCC2C(=O)N1SC(Cl)(Cl)Cl` (stereo not shown) [Captan] the “ΔsseA inhibition of growth” value was −357.

— patent US20140066362A1, “METHOD FOR TREATING INFECTIONS BY TARGETING MICROBIAL H2S-PRODUCING ENZYMES” (NEW YORK UNIVERSITY, priority 2011, published 2014)
